Results from US6489440B1, “Cyclic compounds” (Basilea Pharmaceutica AG, priority 1998, dated 2002).
Numbered stars: 1 amine (or outer) side, 2 acyl side, 3 side chain; on linkers, the order of the positions; unused ones are H or OH. Bridge positions count the residues as written; N and C are the ends. Square brackets hold non-standard residues; d marks the D form. Peptide text beside a SMILES is read from it. * marks the point of attachment. ξ: configuration not given here. X8 = O=C(C[C@@H](CCc1ccc(-c2ccc(OCCCc3ccccc3)cc2)cc1)N[*:2])[*:1]; X5 = CC(C)CCCOc1ccc(-c2ccc(CC[C@H](CC(=O)[*:1])N[*:2])cc2)cc1; X3 = CCCCCCCOc1ccc(-c2ccc(CC[C@H](CC(=O)[*:1])N[*:2])cc2)cc1; X13 = CCCCCOc1ccc(-c2ccc(CC[C@H](CC(=O)[*:1])N[*:2])cc2)cc1; ξTyr(3-NO2) = NC(Cc1ccc(O)c([N+](=O)[O-])c1)C(=O)O; X6 = CCCCCCCCCCCCC[C@H](CC(=O)NC(C(=O)O)C(C)O)O*; X7 = CCCCCCCCCCCCC(C)[C@H](CC(=O)[*:1])O[*:2]; X4 = CC(=O)Nc1cc(CC(N[*:1])C(=O)[*:2])ccc1O; X9 = CCCCCCCCCCCCC[C@H](CC(=O)[*:1])O[*:2]; X2 = NC(=O)CC(O)C(N[*:1])C(=O)[*:2]; ξDopa = NC(Cc1ccc(O)c(O)c1)C(=O)O; X1 = O=C(C1C(O)CCN1[*:1])[*:2]; ξY = NC(Cc1ccc(O)cc1)C(=O)O; ξHyp = O=C(O)C1CC(O)CN1; ξOrn = NCCCC(N)C(=O)O; ξT = CC(O)C(N)C(=O)O; ξV = CC(C)C(N)C(=O)O; ξA = CC(N)C(=O)O

Key:
[1] = Acute toxicity on administration to mice for 4 weeks; assay type: in vivo; settings: 5 mg/kg and 30 mg/kg
[2] = Solubility; settings: solvents in which soluble
[3] = tested on: Candida albicans; assay: In vivo antifungal efficacy, systemic candidiasis in mice; set-up: species or system Crj: CD-1 (ICR) mice; settings: i.v., b.i.d×1 day followed by q.d.×2 days; from survival on day 14
Procedure: Mice of a conventional immunocompetent mouse strain, Crj: CD-1 (ICR) were used for experimental infection models of systemic candidiasis. 4 weeks old Crj: CD-1 (ICR) mice were used for systemic candidiasis by injecting Candida albicans 5×10^6 conidia/mouse via the tail vein. Treatments were given twice (0, 4 h after infection) on the first day and once daily on following 2 days for systemic candidiasis (b.i.d×1 day followed by q.d.×2 days), intravenously (i.v.). 50% of effective dose (ED50) values was calculated from the survival number at each dose on day 14.

[4] = tested on: Aspegillus fumigatus CF1003; assay: In vitro antifungal activity, broth micro-dilution; assay type: cell-based; settings: YNB with 0.2% agarose, 1-2 days at 35° C.
Procedure: (§1) The in vitro antifungal activities of the representative Aerothricins of the present study were evaluated by determining the 50% inhibitory concentration (IC50), which was calculated as the lowest concentration of an antifungal to inhibit the growth of fungus to […] turbidity compared with the drug-free control growth spectrophotometrically.
(§2) The IC50 values were determined by the broth micro-dilution procedure based on NCCLS Approved Standard with the following minor modifications (National Committee for Clinical Laboratory Standards. (1997) Reference method for broth dilution antifungal susceptibility testing for yeasts. Approved standard. Document M27-A). Yeast Nitrogen Base (YNB; Difco Lab.) supplemented with 1% glucose and 0.25% K2HPO4 was used as testing medium for yeast, the same medium solidified with 0.2% low melting point agarose (BRL) was used for filamentous fungi. Inoculum size was 1-3×10^4 cells/ml, and incubation was performed for 1-2 days at 35° C.

[5] = tested on: Candida albicans CY1002; assay: In vitro antifungal activity, broth micro-dilution; assay type: cell-based; settings: YNB medium, 1-2 days at 35° C.
Procedure: as §1, §2

[6] = tested on: Fusarium solani CF1088; assay: In vitro antifungal activity, broth micro-dilution; assay type: cell-based; settings: YNB with 0.2% agarose, 1-2 days at 35° C.
Procedure: as §1, §2

[7] = tested on: mouse hepatocytes; assay: In vitro hepatotoxicity test; assay type: cell-based; settings: mouse hepatocyte monolayers exposed 1 day, morphological evaluation
Text: The mouse hepatocytes were isolated by a collagenase digestion and cultured in microtest plates. The hepatocyte monolayers were exposed to the test Aerothricins in the culture system for 1 day. After the culture period, the hepatocytes were observed under a microscope and evaluated morphologically. The degree of the morphological alteration (degeneration) of the hepatocytes by the test Aerothricins were compared with WF 11243 and LY303366.

| SMILES | Solubility [2] | In vivo antifungal activity against systemic candidiasis in mice, ED50 on day 14 [3] | In vitro Antifungal activity, IC50 [4] | In vitro Antifungal activity, IC50 [5] | In vitro Antifungal activity, IC50 [6] | further results |
| --- | --- | --- | --- | --- | --- | --- |
| CCCCCCCCCCCCC(C)[C@@H]1CC(=O)NC(C(C)O)C(=O)NC(C)C(=O)NC(Cc2ccc(O)cc2)C(=O)NC(C(C)C)C(=O)N2CC(O)CC2C(=O)NC(C(C)O)C(=O)NC(C(C)O)C(=O)N2CCC(O)C2C(=O)NC(C(O)CC(N)=O)C(=O)NCC(=O)NC(C(C)O)C(=O)NC(CCCN)C(=O)O1 (stereo partly drawn) [Aerothricin 1] ([ξT][ξA][ξY][ξV][ξHyp][ξT][ξT][X1][X2]G[ξT][ξOrn]; linker N-C via X7) | Soluble: water, methanol, dimethylsulfoxide |  |  |  |  | acute toxicity [1]: no acute toxicity |
| CCCCCCCCCCCCC[C@@H]1CC(=O)NC(C(C)O)C(=O)NC(C)C(=O)NC(Cc2ccc(O)c(O)c2)C(=O)NC(C(C)C)C(=O)N2CC(O)CC2C(=O)NC(C(C)O)C(=O)NC(C(C)O)C(=O)N2CCC(O)C2C(=O)NC(C(O)CC(N)=O)C(=O)NCC(=O)NC(C(C)O)C(=O)NC(CCCN)C(=O)O1 (stereo partly drawn) [Aerothricin 2] ([ξT][ξA][ξDopa][ξV][ξHyp][ξT][ξT][X1][X2]G[ξT][ξOrn]; linker N-C via X9) | Soluble: water, methanol, dimethylsulfoxide |  |  |  |  |  |
| CCCCCOc1ccc(-c2ccc(CC[C@@H]3CC(=O)NC(C(C)O)C(=O)NC(C)C(=O)NC(Cc4ccc(O)cc4)C(=O)NC(C(C)C)C(=O)N4CC(O)CC4C(=O)NC(C(C)O)C(=O)NC(C(C)O)C(=O)N4CCC(O)C4C(=O)NC(C(O)CC(N)=O)C(=O)NCC(=O)NC(C(C)O)C(=O)NC(CCCN)C(=O)N3)cc2)cc1 (stereo partly drawn) [Aerothricin 41] ([ξT][ξA][ξY][ξV][ξHyp][ξT][ξT][X1][X2]G[ξT][ξOrn]; linker N-C via X13) |  | 0.3 mg/kg |  |  |  |  |
| CCCCCCCOc1ccc(-c2ccc(CC[C@@H]3CC(=O)NC(C(C)O)C(=O)NC(C)C(=O)NC(Cc4ccc(O)cc4)C(=O)NC(C(C)C)C(=O)N4CC(O)CC4C(=O)NC(C(C)O)C(=O)NC(C(C)O)C(=O)N4CCC(O)C4C(=O)NC(C(O)CC(N)=O)C(=O)NCC(=O)NC(C(C)O)C(=O)NC(CCCN)C(=O)N3)cc2)cc1 (stereo partly drawn) [Aerothricin 43] ([ξT][ξA][ξY][ξV][ξHyp][ξT][ξT][X1][X2]G[ξT][ξOrn]; linker N-C via X3) |  |  | 0.04 µg/mL | 0.05 µg/mL | 0.70 µg/mL |  |
| CC(C)CCCOc1ccc(-c2ccc(CC[C@@H]3CC(=O)NC(C(C)O)C(=O)NC(C)C(=O)NC(Cc4ccc(O)cc4)C(=O)NC(C(C)C)C(=O)N4CC(O)CC4C(=O)NC(C(C)O)C(=O)NC(C(C)O)C(=O)N4CCC(O)C4C(=O)NC(C(O)CC(N)=O)C(=O)NCC(=O)NC(C(C)O)C(=O)NC(CCCN)C(=O)N3)cc2)cc1 (stereo partly drawn) [Aerothricin 45] ([ξT][ξA][ξY][ξV][ξHyp][ξT][ξT][X1][X2]G[ξT][ξOrn]; linker N-C via X5) |  | 0.3 mg/kg |  |  |  | Cytotoxicity to hepatocyte [7]: >100 µg/mL |
| CC1NC(=O)C(C(C)O)NC(=O)C[C@@H](CCc2ccc(-c3ccc(OCCCc4ccccc4)cc3)cc2)NC(=O)C(CCCN)NC(=O)C(C(C)O)NC(=O)CNC(=O)C(C(O)CC(N)=O)NC(=O)C2C(O)CCN2C(=O)C(C(C)O)NC(=O)C(C(C)O)NC(=O)C2CC(O)CN2C(=O)C(C(C)C)NC(=O)C(Cc2ccc(O)cc2)NC1=O (stereo partly drawn) [Aerothricin 46] ([ξT][ξA][ξY][ξV][ξHyp][ξT][ξT][X1][X2]G[ξT][ξOrn]; linker N-C via X8) |  | 0.4 mg/kg |  |  |  |  |
| CCCCCCCOc1ccc(-c2ccc(CC[C@@H]3CC(=O)NC(C(C)O)C(=O)NC(C)C(=O)NC(Cc4ccc(O)c([N+](=O)[O-])c4)C(=O)NC(C(C)C)C(=O)N4CC(O)CC4C(=O)NC(C(C)O)C(=O)NC(C(C)O)C(=O)N4CCC(O)C4C(=O)NC(C(O)CC(N)=O)C(=O)NCC(=O)NC(C(C)O)C(=O)NC(CCCN)C(=O)N3)cc2)cc1 (stereo partly drawn) [Aerothricin 55] ([ξT][ξA][ξTyr(3-NO2)][ξV][ξHyp][ξT][ξT][X1][X2]G[ξT][ξOrn]; linker N-C via X3) |  | <0.3 mg/kg | 0.04 µg/mL | 0.04 µg/mL | 0.39 µg/mL |  |
| CCCCCCCOc1ccc(-c2ccc(CC[C@@H]3CC(=O)NC(C(C)O)C(=O)NC(C)C(=O)NC(Cc4ccc(O)c(NC(C)=O)c4)C(=O)NC(C(C)C)C(=O)N4CC(O)CC4C(=O)NC(C(C)O)C(=O)NC(C(C)O)C(=O)N4CCC(O)C4C(=O)NC(C(O)CC(N)=O)C(=O)NCC(=O)NC(C(C)O)C(=O)NC(CCCN)C(=O)N3)cc2)cc1 (stereo partly drawn) [Aerothricin 57] ([ξT][ξA][X4][ξV][ξHyp][ξT][ξT][X1][X2]G[ξT][ξOrn]; linker N-C via X3) |  |  | 0.05 µg/mL | 0.14 µg/mL | 1.30 µg/mL |  |
| CCCCCCCCCCCCC[C@H](CC(=O)NC(C(=O)O)C(C)O)OC(=O)C(CCCN)NC(=O)C(NC(=O)CNC(=O)C(NC(=O)C1C(O)CCN1C(=O)C(NC(=O)C(NC(=O)C1CC(O)CN1C(=O)C(N)C(C)C)C(C)O)C(C)O)C(O)CC(N)=O)C(C)O (stereo partly drawn) [Compound (IX)] (H-[ξV][ξHyp][ξT][ξT][X1][X2]G[ξT][ξOrn]-X6) | Soluble: water, methanol, dimethylsulfoxide |  |  |  |  |  |
